# Data as given in patent US7087768B2, “Fumagillol derivatives and preparing method thereof” (Equispharm Co., Ltd., priority 2001, dated 2006).
# Read-outs that look alike come from different tables or passages of the source.
# Test system: HUVECs (human umbilical vein endothelial cells)
# Assay: Inhibitory effect of fumagillol derivative on HUVEC cell growth (colorimetry)
# Type: cell-based
# Details: for IC50: Homo sapiens, HUVEC growth, cultured 2–3 days with compound, absorption at 490 nm, read-out: IC50
# Protocol: Using the HUVECs (human umbilical vein endothelial), the effect of the fumagillol derivative of the present invention on cell growth was evaluated.
# The HUVECs were added to M199 medium supplemented with 20% FBS (fetal bovine serum), 100 U/ml penicillin, 100 μg/ml streptomycin, 1.5 g/L sodium bicarbonate, 0.1 mg/ml endothelial cell growth supplement (Sigma) and 0.1 mg/ml heparin (Sigma), after which the cells were incubated in an incubator at 37° C. under 5% CO2. Cells were subcultured a maximum of 8 times before being discarded.
# In order to evaluate inhibitory activity of the fumagillin derivative on growth of HUVECs, the inventive compound was dissolved in DMSO and its concentration was adjusted from 10 mM to 1 mM. Cells were aliquotted to 96 well plates at a density of 2×10^3 cells per well and incubated for about 12–24 hours to be properly attached to the plate. Thereafter, the medium was replaced with new medium. The cells were treated with the compound obtained from each of the above examples at various concentration ranges of from 10 μM to […], and cultured for 2–3 days, followed by removing 100 μl of the medium from each well.
# Colorimetry was performed to determine the extent of cell growth. The cells on each plate was added with 20 μl of aqueous one solution and then incubated at 37° C. under 5% CO2 for 2 hours. Using a 96-well plate reader, absorption was measured at 490 nm.
# As such, a conventional TNP-470 having angiogenesis inhibitory effect was used as a control.
Structure (SMILES),IC50 (HUVEC) [ng/mL],also measured
"CO[C@@H]1[C@H](OC(=O)CNc2ccc(OCCOC(C)=O)cc2)CC[C@]2(CO2)[C@H]1[C@@]1(C)OC1CC=C(C)C (some centres unmarked) [Ex. 8, 6-O-(4-(2-acetoxyethoxy)aniline)acetyl fumagillol]",42,
"COc1ccc(NCC(=O)O[C@@H]2CC[C@]3(CO3)[C@@H]([C@@]3(C)OC3CC=C(C)C)[C@@H]2OC)cc1 (some centres unmarked) [Ex. 1, 6-O-(4-methoxyaniline)acetyl fumagillol]",0.0071,"inhibitory effect on HUVEC, times greater than TNP-470 (relative to TNP-470): 2000 times"
"CCCOc1ccc(NCC(=O)O[C@@H]2CC[C@]3(CO3)[C@@H]([C@@]3(C)OC3CC=C(C)C)[C@@H]2OC)cc1 (some centres unmarked) [Ex. 17, 6-O-(4-propyloxyaniline)acetyl fumagillol]",0.61,
"CO[C@@H]1[C@H](OC(=O)CNc2ccc(N(C)C)cc2)CC[C@]2(CO2)[C@H]1[C@@]1(C)OC1CC=C(C)C (some centres unmarked) [Ex. 20, 6-O-(4-dimethylaminoaniline)acetyl fumagillol]",,IC50: 162 ng/mL
"CCC(C)NCC(=O)O[C@@H]1CC[C@]2(CO2)[C@@H]([C@@]2(C)OC2CC=C(C)C)[C@@H]1OC (some centres unmarked) [Ex. 45, 6-O-(sec-butylamino)acetyl fumagillol]",370,
"COc1c(C)cc(NCC(=O)O[C@@H]2CC[C@]3(CO3)[C@@H]([C@@]3(C)OC3CC=C(C)C)[C@@H]2OC)cc1C (some centres unmarked) [Ex. 15, 6-O-(3,5-dimethyl-4-methoxyaniline)acetyl fumagillol]",0.06,
"COC(=O)C(NCC(=O)O[C@@H]1CC[C@]2(CO2)[C@@H]([C@@]2(C)OC2CC=C(C)C)[C@@H]1OC)C(C)(C)C (some centres unmarked) [Ex. 75, 6-O-(methyl-2-amino-3,3-dimethylbutanoate)acetyl fumagillol]",2400,
"C=CCOc1ccc(NCC(=O)O[C@@H]2CC[C@]3(CO3)[C@@H]([C@@]3(C)OC3CC=C(C)C)[C@@H]2OC)cc1 (some centres unmarked) [Ex. 7, 6-O-(4-allyloxyaniline)acetyl fumagillol]",21,
"CCCNCC(=O)O[C@@H]1CC[C@]2(CO2)[C@@H]([C@@]2(C)OC2CC=C(C)C)[C@@H]1OC (some centres unmarked) [Ex. 43, 6-O-(propylamino)acetyl fumagillol]",2400,
"CO[C@@H]1[C@H](OC(=O)CNCC(C)(C)OC)CC[C@]2(CO2)[C@H]1[C@@]1(C)OC1CC=C(C)C (some centres unmarked) [Ex. 70, 6-O-(2-methoxy-2-methyl-propylamino)acetyl fumagillol]",178,
"CO[C@@H]1[C@H](OC(=O)CNc2ccccc2)CC[C@]2(CO2)[C@H]1[C@@]1(C)OC1CC=C(C)C (some centres unmarked) [Ex. 18, 6-O-(aniline)acetyl fumagillol]",,IC50: 17 ng/mL
"CO[C@@H]1[C@H](OC(=O)CNC(C(C)C)C(C)C)CC[C@]2(CO2)[C@H]1[C@@]1(C)OC1CC=C(C)C (some centres unmarked) [Ex. 54, 6-O-(1-isopropyl-2-methylpropylamino)acetyl fumagillol]",,IC50: 11 ng/mL
"COc1cc(C#N)c(NCC(=O)O[C@@H]2CC[C@]3(CO3)[C@@H]([C@@]3(C)OC3CC=C(C)C)[C@@H]2OC)cc1OC (some centres unmarked) [Ex. 6, 6-O-(3,4-dimethoxy-6-cyanoaniline)acetyl fumagillol]",19,
"CCCCC(C)NCC(=O)O[C@@H]1CC[C@]2(CO2)[C@@H]([C@@]2(C)OC2CC=C(C)C)[C@@H]1OC (some centres unmarked) [Ex. 51, 6-O-(1-methyl-pentylamino)acetyl fumagillol]",32000,
"CO[C@@H]1[C@H](OC(=O)CNc2ccc3c(c2)OCO3)CC[C@]2(CO2)[C@H]1[C@@]1(C)OC1CC=C(C)C (some centres unmarked) [Ex. 23, 6-O-(3,4-methylenedioxyaniline)acetyl fumagillol]",0.24,
"CCOc1cc(C)c(NCC(=O)O[C@@H]2CC[C@]3(CO3)[C@@H]([C@@]3(C)OC3CC=C(C)C)[C@@H]2OC)cc1C(C)C (some centres unmarked) [Ex. 16, 6-O-(3-isopropyl-4-ethoxy-6-methylaniline)acetyl fumagillol]",0.17,
"CO[C@@H]1C(OC(=O)CNC2CC2)CC[C@](O)(CCl)[C@H]1C1(C)OC1CC=C(C)C (stereo in doubt) [Ex. 78, 4-((cyclopropylamino)acetyl)oxy-2-(1,2-epoxy-1,5-dimethyl-4-hexenyl)-3-methoxy-1-chloromethyl-1-cyclohexanol]",0.014,
"CCCCNCC(=O)O[C@@H]1CC[C@]2(CO2)[C@@H]([C@@]2(C)OC2CC=C(C)C)[C@@H]1OC (some centres unmarked) [Ex. 44, 6-O-(1-butylamino)acetyl fumagillol]",3200,
"C#CC(C)(C)NCC(=O)O[C@@H]1CC[C@]2(CO2)[C@@H]([C@@]2(C)OC2CC=C(C)C)[C@@H]1OC (some centres unmarked) [Ex. 59, 6-O-(1,1-dimethyl-2-propinylamino)acetyl fumagillol]",174,
"COc1ccc(NCC(=O)O[C@@H]2CC[C@]3(CO3)[C@@H]([C@@]3(C)OC3CC=C(C)C)[C@@H]2OC)nn1 (some centres unmarked) [Ex. 38, 6-O-(3-methoxy-6-aminopyridazine)acetyl fumagillol]",0.019,

Structure (SMILES),IC50 (HUVEC) [ng/mL],also measured
"COc1ccc(NCC(=O)O[C@@H]2CC[C@]3(CO3)[C@@H]([C@@]3(C)OC3CC=C(C)C)[C@@H]2OC)cn1 (some centres unmarked) [Ex. 36, 6-O-(5-amino-2-methoxypyridine)acetyl fumagillol]",0.021,
"COc1c(C(C)C)cc(NCC(=O)O[C@@H]2CC[C@]3(CO3)[C@@H]([C@@]3(C)OC3CC=C(C)C)[C@@H]2OC)cc1C(C)C (some centres unmarked) [Ex. 14, 6-O-(3,5-diisopropyl-4-methoxyaniline)acetyl fumagillol]",14,
"COc1ccc(NCC(=O)O[C@@H]2CC[C@]3(CO3)[C@@H]([C@@]3(C)OC3CC=C(C)C)[C@@H]2OC)cc1C#N (some centres unmarked) [Ex. 9, 6-O-(3-cyano-4-methoxyaniline)acetyl fumagillol]",0.63,
"CO[C@@H]1[C@H](OC(=O)CNC2CCC2)CC[C@]2(CO2)[C@H]1[C@@]1(C)OC1CC=C(C)C (some centres unmarked) [Ex. 64, 6-O-(cyclobutylamino)acetyl fumagillol]",0.07,
"COc1cc(NCC(=O)O[C@@H]2CC[C@]3(CO3)[C@@H]([C@@]3(C)OC3CC=C(C)C)[C@@H]2OC)c([N+](=O)[O-])cc1OC (some centres unmarked) [Ex. 5, 6-O-(3,4-dimethoxy-6-nitroaniline)acetyl fumagillol]",142,
"CO[C@@H]1[C@H](OC(=O)CNC#CCl)CC[C@]2(CO2)[C@H]1[C@@]1(C)OC1CC=C(C)C (some centres unmarked) [Ex. 62, 6-O-(chloroethynylamino)acetyl fumagillol]",340,
"CO[C@@H]1[C@H](OC(=O)CNC(C)(C)CC(C)=O)CC[C@]2(CO2)[C@H]1[C@@]1(C)OC1CC=C(C)C (some centres unmarked) [Ex. 72, 6-O-(1,1-dimethyl-3-oxobutylamino)acetyl fumagillol]",330,
"CO[C@@H]1[C@H](OC(=O)CNc2ccc(C(F)(F)F)cc2)CC[C@]2(CO2)[C@H]1[C@@]1(C)OC1CC=C(C)C (some centres unmarked) [Ex. 32, 6-O-(4-trifluoromethylaniline)acetyl fumagillol]",128,
"CO[C@@H]1[C@H](OC(=O)CNC2CCCC2)CC[C@]2(CO2)[C@H]1[C@@]1(C)OC1CC=C(C)C (some centres unmarked) [Ex. 65, 6-O-(cyclopentylamino)acetyl fumagillol]",250,
"COC(CNCC(=O)O[C@@H]1CC[C@]2(CO2)[C@@H]([C@@]2(C)OC2CC=C(C)C)[C@@H]1OC)OC (some centres unmarked) [Ex. 77, 6-O-(2,2-dimethoxyethylamino)acetyl fumagillol]",330,
"CO[C@@H]1[C@H](OC(=O)CNc2ccc(O)cc2)CC[C@]2(CO2)[C@H]1[C@@]1(C)OC1CC=C(C)C (some centres unmarked) [Ex. 21, 6-O-(4-hydroxyaniline)acetyl fumagillol]",185,
"CNCCOc1ccc(NCC(=O)O[C@@H]2CC[C@]3(CO3)[C@@H]([C@@]3(C)OC3CC=C(C)C)[C@@H]2OC)cc1 (some centres unmarked) [Ex. 30, 6-O-(4-ethylaminoethoxyaniline)acetyl fumagillol]",0.09,
"COc1cc(NCC(=O)O[C@@H]2CC[C@]3(CO3)[C@@H]([C@@]3(C)OC3CC=C(C)C)[C@@H]2OC)cc(O)c1OC (some centres unmarked) [Ex. 27, 6-O-(3,4-dimethoxy-5-hydroxyaniline)acetyl fumagillol]",88,
"CCCC(C)NCC(=O)O[C@@H]1CC[C@]2(CO2)[C@@H]([C@@]2(C)OC2CC=C(C)C)[C@@H]1OC (some centres unmarked) [Ex. 49, 6-O-(1-methyl-butylamino)acetyl fumagillol]",44,
"COc1cc(NCC(=O)O[C@@H]2CC[C@]3(CO3)[C@@H]([C@@]3(C)OC3CC=C(C)C)[C@@H]2OC)cc(OC)c1OC (some centres unmarked) [Ex. 2, 6-O-(3,4,5-trimethoxyaniline)acetyl fumagillol]",0.15,
"CO[C@@H]1[C@H](OC(=O)CNCC(C)=O)CC[C@]2(CO2)[C@H]1[C@@]1(C)OC1CC=C(C)C (some centres unmarked) [Ex. 71, 6-O-(2-oxo-propylamino)acetyl fumagillol]",260,
"CO[C@@H]1[C@H](OC(=O)CNc2ccc(N)cc2)CC[C@]2(CO2)[C@H]1[C@@]1(C)OC1CC=C(C)C (some centres unmarked) [Ex. 22, 6-O-(4-aminoaniline)acetyl fumagillol]",179,
"CCNCC(=O)O[C@@H]1CC[C@]2(CO2)[C@@H]([C@@]2(C)OC2CC=C(C)C)[C@@H]1OC (some centres unmarked) [Ex. 41, 6-O-(ethylamino)acetyl fumagillol]",20,
"CCC(C)CNCC(=O)O[C@@H]1CC[C@]2(CO2)[C@@H]([C@@]2(C)OC2CC=C(C)C)[C@@H]1OC (some centres unmarked) [Ex. 46, 6-O-(2-methyl-butylamino)acetyl fumagillol]",2600,
"CCOC(=O)CNCC(=O)O[C@@H]1CC[C@]2(CO2)[C@@H]([C@@]2(C)OC2CC=C(C)C)[C@@H]1OC (some centres unmarked) [Ex. 73, 6-O-(ethyl-2-aminoacetate)acetyl fumagillol]",1200,
